Target: M. tuberculosis GroEL1 (Cpn60.1) (Mycobacterium tuberculosis, UniProt P9WPE9)
Sequence (P9WPE9 2-539 limits assumed): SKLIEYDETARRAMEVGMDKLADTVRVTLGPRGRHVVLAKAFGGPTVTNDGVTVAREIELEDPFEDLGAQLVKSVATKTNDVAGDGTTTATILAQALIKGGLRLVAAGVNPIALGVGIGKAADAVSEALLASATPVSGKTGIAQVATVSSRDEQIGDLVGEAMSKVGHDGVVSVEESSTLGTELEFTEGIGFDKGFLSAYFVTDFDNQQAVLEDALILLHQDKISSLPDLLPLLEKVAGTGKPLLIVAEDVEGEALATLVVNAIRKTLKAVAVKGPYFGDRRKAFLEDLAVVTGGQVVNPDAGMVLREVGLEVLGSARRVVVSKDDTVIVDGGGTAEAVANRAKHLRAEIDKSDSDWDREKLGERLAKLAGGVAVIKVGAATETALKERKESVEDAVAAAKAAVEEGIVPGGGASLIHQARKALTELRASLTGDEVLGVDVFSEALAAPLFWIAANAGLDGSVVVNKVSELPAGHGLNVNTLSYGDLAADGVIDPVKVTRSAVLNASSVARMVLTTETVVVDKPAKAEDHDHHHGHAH

CCC(=O)SCCNC(=O)CCNC(=O)[C@H](O)C(C)(C)COP(=O)(O)OP(=O)(O)OC[C@H]1O[C@@H](n2cnc3c(N)ncnc32)[C@H](O)[C@@H]1OP(=O)(O)O [propionyl-CoA]
auto-propionylation, anti-propionyllysine enrichment and MS/MS: Using propionyl-CoA as a substrate
